In patent publication US10806746B2, “Di- and tri-cationic glycosylated antitumor ether lipids, L-gucosylated gaels and rhamnose-linked gaels as cytotoxic agents against epithelial cancer cells and cancer stem cells” (The University of Manitoba, priority 2014, dated 2020):
Read-outs that look alike come from different tables or passages of the source.

How the values were obtained:
Type in all cases: cell-based, human
PC3 cells = assay: MTS viability assay, PC3 prostate cancer cells; conditions: 48 h, MTS
Method: (§1) FIG. 2E. Effects of compounds 1-11 on the viability of PC3 cells. PC3 cells were cultured in F12K medium supplemented with 10% FBS. Equal numbers were dispersed into 96-well plates. After 24 h, the cells were incubated with compounds 1-11 (0-30 μM) for 48 h. At the end of the incubation, MTS reagent (20% vol/vol) was added and the plates were incubated for 1-4 h. The OD490 was read with a plate reader. Wells with media but no cells were treated in similar fashion and the values utilized as blank. The results represent the mean±standard deviation of 6 independent determinations.
(§2) The cell lines were cultured from frozen stocks originally obtained from ATCC. MDA-MB-231, JIMT-1, DU145, U81, U251 cells were grown in DMEM medium. BT474, A2780s, A2780cp cells were grown in DMEM/F12 medium supplemented with 10% FBS. MiaPaCa2 was cultured in DMEM supplemented with 10% FBS and 2.5% horse serum. PC3 cells were cultured in F12K medium supplemented with 10% FBS. All the media were supplemented with penicillin/streptomycin.
(§3) The effects of the GAELs on the viability of the various epithelial cancer cell lines was determined as previously described. Briefly, equal numbers of the cells were dispersed into 96-well plates. After 24 h, the cells were incubated with the compounds (0-30 μM) for 48 h. At the end of the incubation, MTS reagent (20% vol/vol) was added and the plates were incubated for 1-4 h. The OD490 was read with a plate reader. Wells with media but no cells were treated in similar fashion and the values utilized as blank. The results represent the mean±standard deviation of 6 independent determinations.

JIMT-1 cells = assay: MTS viability assay, JIMT-1 breast cancer cells
Method: as §1, with “2B.” for “2E.”, “JIMT-1” for “PC3”, “DMEM” for “F12K”
as §1, with “2J.” for “2E.”, “1, 69-72” for “1-11”, “JIMT-1” for “PC3”, “DMEM” for “F12K”, “1, 69-72” for “1-11 (0-30 μM)”
as §2, §3

MDA-MB-231 cells = assay: MTS viability assay, MDA-MB-231 breast cancer cells
Method: as §1, with “FIG. 2A.” for “FIG. 2E.”, “of MDA-MB231” for “of PC3”, “cells. MDA-MB-231” for “cells. PC3”, “in DMEM” for “in F12K”
as §1, with “2K.” for “2E.”, “1, 69-72” for “1-11”, “MDA-MB-231” for “PC3”, “DMEM” for “F12K”, “1, 69-72” for “1-11 (0-30 μM)”
as §2, §3

DU145 cells = assay: MTS viability assay, DU145 prostate cancer cells
Method: as §1, with “2D.” for “2E.”, “DU145” for “PC3”, “DMEM” for “F12K”
as §1, with “2H. Effect” for “2E. Effects”, “1, 69-72” for “1-11”, “DU145” for “PC3”, “DMEM” for “F12K”, “1, 69-72” for “1-11 (0-30 μM)”
as §2, §3

BT-474 cells = assay: MTS viability assay, BT-474 breast cancer cells; conditions: 48 h, MTS
Method: as §1, with “2C.” for “2E.”, “BT-474” for “PC3”, “DMEM/F12” for “F12K”
as §2, §3

[1] = system: BT-474, JIMT-1, MDA-MB-231 (breast), DU145, PC3 (prostate), MiaPaCa2 (pancreas); assay: MTS viability, panel of epithelial cancer cell lines (ranges over the cell lines)
Method: To determine the effect of compounds 1-10 on the viability of the epithelial cancer cell lines, exponentially growing cells, BT-474, JIMT-1, MDA-MB-231 (breast), DU145, PC3 (prostate), MiaPaCa2 (pancreas) were incubated with varying concentrations of 1-8 (0-30 μM) for 48 h followed by viability assays with the MTS reagent.
as §3

MiaPaCa2 cells = assay: MTS viability assay, MiaPaCa2 pancreas cancer cells
Method: as §1, with “2F.” for “2E.”, “MiaPaCa2” for “PC3”, “DMEM” for “F12K”, “FBS and 2.5% horse serum.” for “FBS.”
as §1, with “2I.” for “2E.”, “1, 69-72” for “1-11”, “MiaPaCa2” for “PC3”, “DMEM” for “F12K”, “FBS and 2.5% horse serum.” for “FBS.”, “1, 69-72” for “1-11 (0-30 μM)”
as §2, §3

[2] = Table 1A, read-out: CC50 values PC3
[3] = Table 1B, read-out: CC90 values PC3
[4] = Table 1A, 48 h, read-out: CC50 values JIMT1
[5] = Table 1B, 48 h, read-out: CC90 values JIMT1
[6] = Table 1A, 48 h, read-out: CC50 values MD 231
[7] = Table 1B, 48 h, read-out: CC90 values MD 231
[8] = Table 1A, 48 h, read-out: CC50 values DU 145
[9] = Table 1B, 48 h, read-out: CC90 values DU 145
[10] = Table 1B, read-out: CC90 values BT474
[11] = Table 1A, 48 h, read-out: CC50 values MiaPaCa2
[12] = Table 1B, 48 h, read-out: CC90 values MiaPaCa2
[13] = Table 1A, read-out: CC50 values BT474

CCCCCCCCCCCCCCCCOC[C@H](CO[C@@H]1O[C@H](CN)[C@@H](O)[C@H](O)[C@H]1N)OC [Compound 2, 1-O-Hexadecyl-2-O-methyl-3-O-(-2′,6′-diamino-2′,6′-dideoxy-β-D-glucopyranosyl)-sn-glycerol]
CC50 (PC3 cells; [2]): 11 µM
CC90 (PC3 cells; [3]): 14 µM
CC50 (JIMT-1 cells; [4]): 4.2 µM
CC90 (JIMT-1 cells; [5]): 6.5 µM
CC50 (MDA-MB-231 cells; [6]): 5.5 µM
CC90 (MDA-MB-231 cells; [7]): 7 µM
CC50 (DU145 cells; [8]): 6 µM
CC90 (DU145 cells; [9]): 8.5 µM
CC90 (BT-474 cells; [10]): 14 µM
CC50 ([1]; range over the cell lines tested, 48 h, read-out: CC50 values, range depending on the cell line): 4.2 to 11.5 µM
CC50 (MiaPaCa2 cells; [11]): 7 µM
CC90 (MiaPaCa2 cells; [12]): 12 µM

CCCCCCCCCCCCCCCCOCC(CO[C@@H]1O[C@H](CO)[C@@H](O)[C@H](O)[C@H]1N)NC(=O)CCCCCCCCCCCCCCC (stereo partly drawn) [Compound 9, 1-O-Hexadecyloxy-2S/R—N-hexadecylacyl-3-(-2′-amino-2′-deoxy-β-D-glucopyranosyl)-glycerol]
CC50 (PC3 cells; [2]): > 30 µM
CC90 (PC3 cells; [3]): > 30 µM
CC50 (JIMT-1 cells; [4]): > 30 µM
CC90 (JIMT-1 cells; [5]): > 30 µM
CC50 (MDA-MB-231 cells; [6]): > 30 µM
CC90 (MDA-MB-231 cells; [7]): > 30 µM
CC50 (DU145 cells; [8]): > 30 µM
CC90 (DU145 cells; [9]): > 30 µM
CC50 (BT-474 cells; [13]): > 30 µM
CC90 (BT-474 cells; [10]): > 30 µM
activity at the highest concentration tested ([1]; 30 μM, all the cell lines tested): not active
CC50 (MiaPaCa2 cells; [11]): > 30 µM
CC90 (MiaPaCa2 cells; [12]): > 30 µM

CCCCCCCCCCCCCCCCOC[C@H](COC1O[C@H](CN)[C@@H](O)[C@H](O)[C@H]1NCCCCCCCCCCCCN)OC (some centres unmarked) [Compound 75, 1-O-Hexadecyl-2-O-methyl-3-O-[2′-N-(12-aminododecyl)-2′,6′-diamino-2′,6′-dideoxy-glucopyranoside]-sn-glycerol]
CC50 (PC3 cells; Table 6, read-out: PC3 CC50): 8.5 µM
CC90 (PC3 cells; Table 6, read-out: PC3 CC90): 11.5 µM
CC50 (JIMT-1 cells; Table 6, 48 h, read-out: JIMT1 CC50): 8 µM
CC90 (JIMT-1 cells; Table 6, 48 h, read-out: JIMT1 CC90): 9.5 µM
CC50 (MDA-MB-231 cells; Table 6, 48 h, read-out: MB-MDA-231 CC50): 5.5 µM
CC90 (MDA-MB-231 cells; Table 6, 48 h, read-out: MB-MDA-231 CC90): 9.5 µM
CC50 (DU145 cells; Table 6, 48 h, read-out: DU145 CC50): 7.5 µM
CC90 (DU145 cells; Table 6, 48 h, read-out: DU145 CC90): 9.5 µM
CC50 (BT-474 cells; Table 6, read-out: BT474 CC50): 13.5 µM
CC90 (BT-474 cells; Table 6, read-out: BT474 CC90): 16.5 µM
cytotoxicity against all cell lines examined ([1]; tricationic GAELs, FIG. 2O, Table 6): cytotoxic
CC50 (MiaPaCa2 cells; Table 6, 48 h, read-out: MiaPaCa2 CC50): 8.5 µM
CC90 (MiaPaCa2 cells; Table 6, 48 h, read-out: MiaPaCa2 CC90): 12 µM

CCCCCCCCCCCCCCCCOCC(N)CO[C@H]1O[C@H](CO)[C@@H](O)[C@H](O)[C@H]1N (stereo partly drawn) [Compound 8, 1-O-Hexadecyloxy-2S/R-amino-3-(-2′-amino-2′-deoxy-α-D-glucopyranosyl)-glycerol]
CC50 (PC3 cells; [2]): 9 µM
CC90 (PC3 cells; [3]): 14 µM
CC50 (JIMT-1 cells; [4]): 5.5 µM
CC90 (JIMT-1 cells; [5]): 7.5 µM
CC50 (MDA-MB-231 cells; [6]): 6 µM
CC90 (MDA-MB-231 cells; [7]): 9 µM
CC50 (DU145 cells; [8]): 6 µM
CC90 (DU145 cells; [9]): 9 µM
CC50 (BT-474 cells; [13]): 15.5 µM
CC90 (BT-474 cells; [10]): 28 µM
CC50 (MiaPaCa2 cells; [11]): 8.5 µM
CC90 (MiaPaCa2 cells; [12]): 14 µM
